Several values for one entry are separate records, joined by “and”; a condition that tells them apart may be missing. Identical values can stand only once. Counter-ions that a name gives are not always drawn. Like-named read-outs stand apart in the source and are kept apart here. Each block holds one compound with its values, some of them ahead of it.
Experiments:
[1] = Solubilities of constituents in non-aqueous solvents; assay type: physicochemical; conditions: organic solvent or mixture
Description: In a series of experiments, the solubilities of several constituents that may be used in the solution of the present invention were measured: […]

[2] = Stability experiments using ultraperformance liquid chromatography (UPLC); assay type: physicochemical
Text: In stability experiments using ultraperformance liquid chromatography (UPLC) we confirmed that, in accordance with the scientific literature, apomorphine hydrochloride in aqueous solutions is not stable. It is quickly decomposed on storage.

[3] = water; also printed as 1% w/w; cited from earlier work
[4] = test system: Parkinson's disease subjects; conditions: cited from earlier work; for time to peak benefit: nine Parkinson's disease subjects
[5] = test system: ciliated respiratory tissue; conditions: 25% propylene glycol, 15% glycerol, 25% polyethylene glycol 400, 5% povidone in Locke-Ringer solution (WO2005/067893); cited from earlier work
[6] = test system: ciliated respiratory tissue; assay: Effect on ciliary beat frequency (CBF) of ciliated tissue, rinsing with Locke-Ringer solution after 15 minutes; assay type: cell-based; conditions: for reversibility of effect on CBF: rinsing with LR after 15 minutes
Description: Disclosed are in vitro experiments, according to a previously published method (Merkus et al, 2001), describing the effect of four different solubilizers [25% propylene glycol, 15% glycerol, 25% polyethylene glycol 400 and 5% povidone], dissolved in a Locke-Ringer solution, on the ciliary beat frequency (CBF) of ciliated tissue. […] However, after rinsing with a pure Locke-Ringer solution, the effects on CBF appeared to be completely reversed within 20 minutes.
No ciliary beat frequency could be measured any more. […] Obviously the ciliated cells have been irreversibly damaged by the extreme hyperosmolar concentration of 50% propylene glycol. […] Thus, a nasal formulation containing a drug like apomorphine, dissolved in 50% or more (v/v) propylene glycol, is not a viable option, because it has to be administered in Parkinson's disease on a regular basis, for instance daily or several times per day or per week. On the other hand, such a high concentration of propylene glycol is needed to solubilise sufficient apomorphine (several mg per 0.1 ml) to treat a patient with off-periods in Parkinson's disease.
FIG. 1 is a graph showing the effect of 10% (v/v) propylene glycol (closed circles) or control (open circles) on ciliary beat frequency (CBF) of ciliated respiratory tissue. After 15 minutes contact with 10% (v/v) propylene glycol, tissue is rinsed with pure Locke-Ringer (LR) solution.
FIG. 2 is a graph showing the effect of 25% (v/v) propylene glycol (closed circles) or control (open circles) on ciliary beat frequency (CBF) of ciliated respiratory tissue. After 15 minutes contact with 25% (v/v) propylene glycol, tissue is rinsed with pure Locke-Ringer (LR) solution.
FIG. 3 is a graph showing the effect of 50% (v/v) propylene glycol (closed circles) or control (open circles) on ciliary beat frequency (CBF) of ciliated respiratory tissue. After 15 minutes contact with 50% (v/v) propylene glycol, tissue is rinsed with pure Locke-Ringer (LR) solution.
After 15 minutes contacts with 10% (v/v) propylene glycol, tissue is rinsed with pure Locke-Ringer (LR) solution.
After 15 minute contacts with 25% (v/v) propylene glycol, tissue is rinsed with pure Locke-Ringer (LR) solution.
After 15 minute contacts with 50% (v/v) propylene glycol, tissue is rinsed with pure Locke-Ringer (LR) solution.

[7] = solvent ethanol, read-out: solubility in ethanol
[8] = solvent propylene glycol, read-out: solubility in propylene glycol
[9] = 10% propylene glycol in Locke-Ringer solution, time 0 min
[10] = 10% propylene glycol in Locke-Ringer solution, time 5 min
[11] = 10% propylene glycol in Locke-Ringer solution, time 10 min
[12] = 10% propylene glycol in Locke-Ringer solution, time 15 min
[13] = 10% propylene glycol, time 20 min, after rinsing with LR at 15 min
[14] = 10% propylene glycol, time 30 min, after rinsing with LR at 15 min
[15] = 10% propylene glycol, time 40 min, after rinsing with LR at 15 min
[16] = 10% propylene glycol, time 50 min, after rinsing with LR at 15 min
[17] = 10% propylene glycol, time 60 min, after rinsing with LR at 15 min
[18] = 25% propylene glycol in Locke-Ringer solution, time 0 min
[19] = 25% propylene glycol in Locke-Ringer solution, time 15 min
[20] = 25% propylene glycol, time 20 min, after rinsing with LR at 15 min
[21] = 25% propylene glycol, time 30 min, after rinsing with LR at 15 min
[22] = 25% propylene glycol, time 40 min, after rinsing with LR at 15 min
[23] = 25% propylene glycol, time 50 min, after rinsing with LR at 15 min
[24] = 25% propylene glycol, time 60 min, after rinsing with LR at 15 min
[25] = 50% propylene glycol in Locke-Ringer solution, time 0 min
[26] = 50% propylene glycol in Locke-Ringer solution, time 5 min
[27] = 50% propylene glycol in Locke-Ringer solution, time 10 min
[28] = 50% propylene glycol in Locke-Ringer solution, time 15 min
[29] = 50% propylene glycol, time 20 min, after rinsing with LR at 15 min
[30] = 50% propylene glycol, time 30 min, after rinsing with LR at 15 min
[31] = 50% propylene glycol, time 40 min, after rinsing with LR at 15 min
[32] = 50% propylene glycol, time 50 min, after rinsing with LR at 15 min
[33] = 50% propylene glycol, time 60 min, after rinsing with LR at 15 min

Structure (SMILES): CN1CCc2cccc3c2[C@H]1Cc1ccc(O)c(O)c1-3 [apomorphine]
aqueous solubility [3]: about 10 mg/ml
time to peak benefit ([4]; 3 mg apomorphine subcutaneous injection): 21 min
time to peak benefit ([4]; 30 mg apomorphine sublingual tablets): > 40 min
stomatitis on chronic use ([4]; chronic use of the sublingual formulation): severe stomatitis in half the subjects

Structure (SMILES): OCC(O)CO [glycerol]
effect on CBF after 15 minutes [5]: strong decrease

Structure (SMILES): CC(O)CO (stereo not shown) [propylene glycol]
effect on CBF after 15 minutes [5]: strong decrease
CBF (% of initial value), Mean [6, 9]: 100 % of initial value
CBF (% of initial value), single experiments [6, 9]: 100 % of initial value
CBF (% of initial value), Mean [6, 10]: 54 % of initial value
CBF (% of initial value), single experiments [6, 10]: 46 % of initial value and 58 % of initial value and 56 % of initial value and 51 % of initial value and 60 % of initial value
CBF (% of initial value), Mean [6, 11]: 54 % of initial value
CBF (% of initial value), single experiments [6, 11]: 50 % of initial value and 55 % of initial value and 63 % of initial value and 45 % of initial value
CBF (% of initial value), Mean [6, 12]: 50 % of initial value
CBF (% of initial value), single experiments [6, 12]: 57 % of initial value and 52 % of initial value and 43 % of initial value and 51 % of initial value and 45 % of initial value
reversibility of effect on CBF ([6]; 10% propylene glycol): reversible
CBF (% of initial value), Mean [6, 13]: 98 % of initial value
CBF (% of initial value), single experiments [6, 13]: 91 % of initial value and 92 % of initial value and 118 % of initial value and 110 % of initial value and 76 % of initial value
CBF (% of initial value), Mean [6, 14]: 97 % of initial value
CBF (% of initial value), single experiments [6, 14]: 94 % of initial value and 87 % of initial value and 110 % of initial value and 99 % of initial value and 93 % of initial value
CBF (% of initial value), Mean [6, 15]: 96 % of initial value
CBF (% of initial value), single experiments [6, 15]: 84 % of initial value and 91 % of initial value and 109 % of initial value and 102 % of initial value and 93 % of initial value
CBF (% of initial value), Mean [6, 16]: 95 % of initial value
CBF (% of initial value), single experiments [6, 16]: 82 % of initial value and 103 % of initial value and 106 % of initial value and 99 % of initial value and 86 % of initial value
CBF (% of initial value), Mean [6, 17]: 94 % of initial value
CBF (% of initial value), single experiments [6, 17]: 85 % of initial value and 94 % of initial value and 106 % of initial value and 99 % of initial value and 84 % of initial value
CBF (% of initial value), Mean [6, 18]: 100 % of initial value
CBF (% of initial value), single experiments [6, 18]: 100 % of initial value
CBF (% of initial value), Mean ([6]; 25% propylene glycol in Locke-Ringer solution, time 5 min): 11 % of initial value
CBF (% of initial value), Mean ([6]; 25% propylene glycol in Locke-Ringer solution, time 10 min): 3 % of initial value
CBF (% of initial value), Mean [6, 19]: 0 % of initial value
CBF (% of initial value), single experiments [6, 19]: 0 % of initial value
reversibility of effect on CBF ([6]; 25% propylene glycol): reversible
CBF (% of initial value), Mean [6, 20]: 80 % of initial value
CBF (% of initial value), single experiments [6, 20]: 86 % of initial value and 72 % of initial value and 85 % of initial value and 69 % of initial value and 87 % of initial value
CBF (% of initial value), Mean [6, 21]: 86 % of initial value
CBF (% of initial value), single experiments [6, 21]: 68 % of initial value and 101 % of initial value and 83 % of initial value and 89 % of initial value and 94 % of initial value
CBF (% of initial value), Mean [6, 22]: 97 % of initial value
CBF (% of initial value), single experiments [6, 22]: 97 % of initial value and 103 % of initial value and 99 % of initial value and 89 % of initial value and 94 % of initial value
CBF (% of initial value), Mean [6, 23]: 98 % of initial value
CBF (% of initial value), single experiments [6, 23]: 100 % of initial value and 102 % of initial value and 103 % of initial value and 91 % of initial value and 92 % of initial value
CBF (% of initial value), Mean [6, 24]: 97 % of initial value
CBF (% of initial value), single experiments [6, 24]: 102 % of initial value and 103 % of initial value and 94 % of initial value and 91 % of initial value
cilia activity ([6]; 50% (v/v) propylene glycol, after 5-15 minutes contact): completely arrested
CBF (% of initial value), Mean [6, 25]: 100 % of initial value
CBF (% of initial value), single experiments [6, 25]: 100 % of initial value
CBF (% of initial value), Mean [6, 26]: 0 % of initial value
CBF (% of initial value), single experiments [6, 26]: 0 % of initial value
CBF (% of initial value), Mean [6, 27]: 0 % of initial value
CBF (% of initial value), single experiments [6, 27]: 0 % of initial value
CBF (% of initial value), Mean [6, 28]: 0 % of initial value
CBF (% of initial value), single experiments [6, 28]: 0 % of initial value
reversibility of effect on CBF ([6]; 50% propylene glycol): not reversible
CBF (% of initial value), Mean [6, 29]: 0 % of initial value
CBF (% of initial value), single experiments [6, 29]: 0 % of initial value
CBF (% of initial value), Mean [6, 30]: 0 % of initial value
CBF (% of initial value), single experiments [6, 30]: 0 % of initial value
CBF (% of initial value), Mean [6, 31]: 0 % of initial value
CBF (% of initial value), single experiments [6, 31]: 0 % of initial value
CBF (% of initial value), Mean [6, 32]: 0 % of initial value
CBF (% of initial value), single experiments [6, 32]: 0 % of initial value
CBF (% of initial value), Mean [6, 33]: 0 % of initial value
CBF (% of initial value), single experiments [6, 33]: 0 % of initial value

Results, then the compound that gave them:

solubility ([1]; solvent PEG 400, read-out: solubility in PEG 400): 15 mg/mL
solubility [1, 7]: 20 mg/mL
solubility ([1]; solvent glycerol, read-out: solubility in glycerol): 35 mg/mL
solubility [1, 8]: 80 mg/mL
stability on storage ([2]; aqueous solutions): not stable
stability on storage ([2]; non-aqueous solutions in propylene glycol, compared with aqueous): more stable
Structure (SMILES): CN1CCc2cccc3c2[C@H]1Cc1ccc(O)c(O)c1-3 [Apomorphine HCl]

solubility [1, 7]: 20 mg/mL
solubility [1, 8]: 250 mg/mL
Structure (SMILES): O=C1NS(=O)(=O)c2ccccc21.[Na] [Saccharin sodium]
